Experimental data reported in patent US8129366B2, “VLA-4 inhibitory drug” (Daiichi Sankyo Company, Limited, priority 2005, dated 2012).
≈ marks a conversion by molar mass, not a printed value.

Key:
hα4 and β1 integrins = target: T1, hα4 and β1 integrins (Homo sapiens, UniProt P05556+P13612); assay: In vitro inhibition of binding between CHO cells expressing hα4 and β1 integrins and Eu3+-hVCAM-1 D1D7-IgG; details: for Ki: CHO cells expressing hα4 and β1 integrins, Eu3+-hVCAM-1 D1D7-IgG ligand, without HSA; for IC50: in the presence of 3% human serum albumin (HSA final concentration 3%)
T1 construct: expressed in transfected cells; host or cells: CHO cells
T1 sequence (P13612 34-1032): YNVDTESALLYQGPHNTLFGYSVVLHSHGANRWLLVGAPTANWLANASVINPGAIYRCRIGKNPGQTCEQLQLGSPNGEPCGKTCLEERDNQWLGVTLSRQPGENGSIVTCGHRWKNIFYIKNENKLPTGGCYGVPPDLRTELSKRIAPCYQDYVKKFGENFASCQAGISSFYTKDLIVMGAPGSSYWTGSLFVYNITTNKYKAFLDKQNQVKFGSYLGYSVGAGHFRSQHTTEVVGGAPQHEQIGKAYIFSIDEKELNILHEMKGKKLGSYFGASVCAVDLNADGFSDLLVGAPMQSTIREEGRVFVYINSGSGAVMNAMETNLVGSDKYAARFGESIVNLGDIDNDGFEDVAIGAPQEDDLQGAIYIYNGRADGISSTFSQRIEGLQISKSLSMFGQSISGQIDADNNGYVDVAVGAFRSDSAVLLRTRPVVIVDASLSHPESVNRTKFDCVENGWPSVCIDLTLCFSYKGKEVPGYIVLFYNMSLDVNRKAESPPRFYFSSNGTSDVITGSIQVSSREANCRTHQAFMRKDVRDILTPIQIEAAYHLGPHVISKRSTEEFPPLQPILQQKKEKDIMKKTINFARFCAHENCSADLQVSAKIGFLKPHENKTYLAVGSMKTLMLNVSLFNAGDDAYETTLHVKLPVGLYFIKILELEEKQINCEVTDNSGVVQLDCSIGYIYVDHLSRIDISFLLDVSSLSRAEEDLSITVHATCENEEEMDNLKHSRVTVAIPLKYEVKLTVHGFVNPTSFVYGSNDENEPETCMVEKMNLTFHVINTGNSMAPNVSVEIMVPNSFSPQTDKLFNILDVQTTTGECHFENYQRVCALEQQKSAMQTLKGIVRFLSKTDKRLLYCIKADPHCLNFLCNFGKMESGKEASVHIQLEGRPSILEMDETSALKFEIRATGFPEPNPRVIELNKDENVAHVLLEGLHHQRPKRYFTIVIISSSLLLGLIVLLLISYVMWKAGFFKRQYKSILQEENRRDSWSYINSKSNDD
T1 sequence (P05556 21-798): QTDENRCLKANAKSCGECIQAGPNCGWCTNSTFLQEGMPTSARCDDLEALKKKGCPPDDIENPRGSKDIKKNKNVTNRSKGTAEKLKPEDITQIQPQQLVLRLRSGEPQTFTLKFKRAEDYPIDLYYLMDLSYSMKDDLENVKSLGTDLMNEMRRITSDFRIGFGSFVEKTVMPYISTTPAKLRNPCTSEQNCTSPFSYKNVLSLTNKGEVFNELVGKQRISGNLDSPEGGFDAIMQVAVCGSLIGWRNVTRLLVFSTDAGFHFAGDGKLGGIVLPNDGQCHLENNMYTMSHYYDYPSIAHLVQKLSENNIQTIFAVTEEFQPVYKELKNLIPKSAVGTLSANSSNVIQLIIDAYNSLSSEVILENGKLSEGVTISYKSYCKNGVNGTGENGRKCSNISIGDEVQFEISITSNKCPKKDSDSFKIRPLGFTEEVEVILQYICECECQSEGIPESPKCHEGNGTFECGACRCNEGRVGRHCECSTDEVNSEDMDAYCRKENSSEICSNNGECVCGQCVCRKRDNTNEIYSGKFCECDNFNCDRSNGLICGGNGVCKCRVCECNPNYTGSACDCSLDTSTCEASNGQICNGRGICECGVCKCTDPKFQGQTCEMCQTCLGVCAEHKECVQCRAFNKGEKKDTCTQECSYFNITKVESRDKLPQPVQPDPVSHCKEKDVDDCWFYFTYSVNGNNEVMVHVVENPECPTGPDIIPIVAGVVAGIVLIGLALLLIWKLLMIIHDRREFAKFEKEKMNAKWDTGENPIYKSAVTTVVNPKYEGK
Summary of the method: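 Transfected CHO cells, cultured 2 days, were incubated with compound and Eu³⁺-hVCAM-1 D1D7-IgG (diluted to 2 nM) for 1 h at room temperature. Buffer was 25 mM HEPES pH 7.5 with 1 mM Ca²⁺, 1 mM Mg²⁺, 4 mM Mn²⁺ and 0.1% BSA, ±3% HSA final. Cells were washed at 4 °C and read by DELFIA time-resolved fluorescence; Ki was derived from IC50 using the Scatchard Kd.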

[1] = Solubility test in first and second liquid of the Japanese Pharmacopoeia; details: Solubility
Procedure: The solubilities of the substance under test in the first liquid (JP1, pH=1.2) of the Japanese Pharmacopoeia and the second liquid (JP2, pH=6.8) of the Japanese Pharmacopoeia, were evaluated.

[2] = first liquid of the Japanese Pharmacopoeia (JP1), pH 1.2, simulated gastric fluid, First liquid of Japanese Pharmacopoeia (μg/mL), JP1, pH=1.2
[3] = second liquid of the Japanese Pharmacopoeia (JP2), pH 6.8, aqueous buffer, Second liquid of Japanese Pharmacopoeia (μg/mL), JP2, pH=6.8

Ki (hα4 and β1 integrins) | IC50 (hα4 and β1 integrins) | solubility [1, 2] | solubility [1, 3] | Structure (SMILES)
0.42 nM | 14 nM | > 2000 µg/mL | > 2000 µg/mL | CC(=O)N[C@H]1CCN([C@H]2C[C@@H](CO[C@H]3CC[C@H](C(=O)O)CC3)N(C(=O)Cc3cc(Cl)c(NC(=O)c4csc5ccccc45)cc3F)C2)C1 [Example 66, Trans-4-[1-[[4-[(benzo[b]thiophen-3-ylcarbonyl)amino]-5-chloro-2-fluorophenyl]acetyl]-(4S)-[(3S)-acetamidopyrrolidin-1-yl]-(2S)-pyrrolidinylmethoxy]cyclohexanecarboxylic acid]
1.9 nM | 22 nM | 1000 µg/mL (≈ 1460 µM) | 1000 µg/mL (≈ 1460 µM) | O=C(Nc1cc(Cl)c(CC(=O)N2C[C@@H](N3C[C@@H]4OCO[C@@H]4C3)C[C@H]2CO[C@H]2CC[C@H](C(=O)O)CC2)cc1Cl)c1coc2ccccc12 [Example 73, Trans-4-[1-[[4-[(benzo[b]furan-3-ylcarbonyl)amino]-2,5-dichlorophenyl]acetyl]-(4S)-[(3a,6a-cis)-tetrahydro[1,3]dioxolo[4,5-c]pyrrol-5-yl]-(2S)-pyrrolidinylmethoxy]cyclohexanecarboxylic acid]
1.5 nM | 8.8 nM | 1200 µg/mL (≈ 1790 µM) | 1300 µg/mL (≈ 1940 µM) | O=C(Nc1cc(F)c(CC(=O)N2C[C@@H](N3C[C@@H]4OCO[C@@H]4C3)C[C@H]2CO[C@H]2CC[C@H](C(=O)O)CC2)cc1Cl)c1coc2ccccc12 [Example 74, Trans-4-[1-[[4-[(benzo[b]furan-3-ylcarbonyl)amino]-5-chloro-2-fluorophenyl]acetyl]-(4S)-[(3a,6a-cis)-tetrahydro[1,3]dioxolo[4,5-c]pyrrol-5-yl]-(2S)-pyrrolidinylmethoxy]cyclohexanecarboxylic acid]
1.5 nM | 5.2 nM | > 2000 µg/mL | > 2000 µg/mL | Cn1cc(C(=O)Nc2cc(F)c(CC(=O)N3C[C@@H](N4CCOCC4)C[C@H]3CO[C@H]3CC[C@H](C(=O)O)CC3)cc2Cl)c2ccccc21 [Example 78, Trans-4-[1-[[5-chloro-2-fluoro-4-[(1-methyl-1H-indol-3-ylcarbonyl)amino]phenyl]acetyl]-(4S)-(morpholin-4-yl)-(2S)-pyrrolidinylmethoxy]cyclohexanecarboxylic acid]
4.5 nM | 27 nM | 1300 µg/mL (≈ 1960 µM) | 1200 µg/mL (≈ 1810 µM) | C[C@@H]1CN([C@H]2C[C@@H](CO[C@H]3CC[C@H](C(=O)O)CC3)N(C(=O)Cc3ccc(NC(=O)c4nccc5ccccc45)c(Cl)c3)C2)C[C@H](C)O1 [Example 86, Trans-4-[1-[[3-chloro-4-[(isoquinolin-1-ylcarbonyl)amino]phenyl]acetyl]-(4S)-(cis-2,6-dimethylmorpholin-4-yl)-(2S)-pyrrolidinylmethoxy]cyclohexanecarboxylic acid]
0.95 nM | 8.1 nM | 1200 µg/mL (≈ 1840 µM) | 1200 µg/mL (≈ 1840 µM) | C[C@@H]1CN([C@H]2C[C@@H](CO[C@H]3CC[C@H](C(=O)O)CC3)N(C(=O)Cc3ccc(NC(=O)c4coc5ccccc45)c(Cl)c3)C2)C[C@H](C)O1 [Example 87, Trans-4-[1-[[4-[(benzo[b]furan-3-ylcarbonyl)amino]-3-chlorophenyl]acetyl]-(4S)-(cis-2,6-dimethylmorpholin-4-yl)-(2S)-pyrrolidinylmethoxy]cyclohexanecarboxylic acid]
1.5 nM | 9 nM | 1100 µg/mL (≈ 1650 µM) | 1300 µg/mL (≈ 1950 µM) | C[C@@H]1CN([C@H]2C[C@@H](CO[C@H]3CC[C@H](C(=O)O)CC3)N(C(=O)Cc3ccc(NC(=O)c4nn(C)c5ccccc45)c(Cl)c3)C2)C[C@H](C)O1 [Example 88, Trans-4-[1-[[3-chloro-4-[(1-methyl-1H-indazol-3-ylcarbonyl)amino]phenyl]acetyl]-(4S)-(cis-2,6-dimethylmorpholin-4-yl)-(2S)-pyrrolidinylmethoxy]cyclohexanecarboxylic acid]
0.34 nM | 3.8 nM | > 2000 µg/mL | 1020 µg/mL (≈ 1450 µM) | COCC1CCN([C@H]2C[C@@H](CO[C@H]3CC[C@H](C(=O)O)CC3)N(C(=O)Cc3cc(Cl)c(NC(=O)c4csc5ccccc45)cc3F)C2)CC1 [Example 99, Trans-4-[1-[[4-[(benzo[b]thiophen-3-ylcarbonyl)amino]-5-chloro-2-fluorophenyl]acetyl]-(4S)-[(4-methoxymethyl)piperidin-1-yl]-(2S)-pyrrolidinylmethoxy]cyclohexanecarboxylic acid]
0.32 nM | 2.2 nM | > 2000 µg/mL | 1360 µg/mL (≈ 1990 µM) | COC1CCN([C@H]2C[C@@H](CO[C@H]3CC[C@H](C(=O)O)CC3)N(C(=O)Cc3cc(Cl)c(NC(=O)c4csc5ccccc45)cc3F)C2)CC1 [Example 103, Trans-4-[1-[[4-[(benzo[b]thiophen-3-ylcarbonyl)amino]-5-chloro-2-fluorophenyl]acetyl]-(4S)-(4-methoxypiperidin-1-yl)-(2S)-pyrrolidinylmethoxy]cyclohexanecarboxylic acid]
1.2 nM | 9.2 nM | > 2000 µg/mL | 1580 µg/mL (≈ 2310 µM) | CO[C@@H]1CCCN([C@H]2C[C@@H](CO[C@H]3CC[C@H](C(=O)O)CC3)N(C(=O)Cc3cc(Cl)c(NC(=O)c4csc5ccccc45)cc3F)C2)C1 [Example 106, Trans-4-[1-[[4-[(benzo[b]thiophen-3-ylcarbonyl)amino]-5-chloro-2-fluorophenyl]acetyl]-(4S)-[(3R)-methoxypiperidin-1-yl]-(2S)-pyrrolidinylmethoxy]cyclohexanecarboxylic acid]
1.8 nM | 7.6 nM | 1200 µg/mL (≈ 1650 µM) | 1200 µg/mL (≈ 1650 µM) | CN(C)C(=O)C1CCN([C@H]2C[C@@H](CO[C@H]3CC[C@H](C(=O)O)CC3)N(C(=O)Cc3cc(Cl)c(NC(=O)c4coc5ccccc45)cc3Cl)C2)CC1 [Example 107, Trans-4-[1-[[4-[(benzo[b]furan-3-ylcarbonyl)amino]-2,5-dichlorophenyl]acetyl]-(4S)-[4-(dimethylcarbamoyl)piperidin-1-yl]-(2S)-pyrrolidinylmethoxy]cyclohexanecarboxylic acid]
0.25 nM | 30 nM | > 2000 µg/mL | > 2000 µg/mL | O=C(Nc1cc(F)c(CC(=O)N2C[C@@H](N3CCC(N4CCOCC4)CC3)C[C@H]2CO[C@H]2CC[C@H](C(=O)O)CC2)cc1Cl)c1csc2ccccc12 [Example 110, Trans-4-[1-[[4-[(benzo[b]thiophen-3-ylcarbonyl)amino]-5-chloro-2-fluorophenyl]acetyl]-(4S)-[4-(morpholin-4-yl)piperidin-1-yl]-(2S)-pyrrolidinylmethoxy]cyclohexanecarboxylic acid]
2.8 nM | 9.5 nM | 1000 µg/mL (≈ 1400 µM) | 1000 µg/mL (≈ 1400 µM) | CC(C)N1CCN([C@H]2C[C@@H](CO[C@H]3CC[C@H](C(=O)O)CC3)N(C(=O)Cc3cc(Cl)c(NC(=O)c4cn(C)c5ccccc45)cc3Cl)C2)CC1 [Example 113, Trans-4-[1-[[2,5-dichloro-4-[(1-methyl-1H-indol-3-ylcarbonyl)amino]phenyl]acetyl]-(4S)-(4-isopropylpiperazin-1-yl)-(2S)-pyrrolidinylmethoxy]cyclohexanecarboxylic acid]
3.2 nM | 12 nM | 1400 µg/mL (≈ 1920 µM) | 1400 µg/mL (≈ 1920 µM) | C[C@@H]1CN([C@H]2C[C@@H](CO[C@H]3CC[C@H](C(=O)O)CC3)N(C(=O)Cc3cc(Cl)c(NC(=O)c4cn(C)c5ccccc45)cc3F)C2)C[C@H](C)N1CCF [Example 147, Trans-4-[1-[[5-chloro-2-fluoro-4-[(1-methyl-1H-indol-3-ylcarbonyl)amino]phenyl]acetyl]-(4S)-[cis-2,6-dimethyl-1-(2-fluoroethyl)piperazin-4-yl]-(2S)-pyrrolidinylmethoxy]cyclohexanecarboxylic acid]
13 nM | 71 nM | 1000 µg/mL (≈ 1380 µM) | 1000 µg/mL (≈ 1380 µM) | Cn1cc(C(=O)Nc2cc(Cl)c(CC(=O)N3C[C@@H](N4CC5CC4CN5C4CC4)C[C@H]3CO[C@H]3CC[C@H](C(=O)O)CC3)cc2Cl)c2ccccc21 (stereo partly drawn) [Example 164, Trans-4-[1-[[2,5-dichloro-4-[(1-methyl-1H-indol-3-ylcarbonyl)amino]phenyl]acetyl]-(4S)-[(1S,4S)-2-cyclopropyl-2,5-diazabicyclo[2.2.1]heptan-5-yl]-(2S)-pyrrolidinylmethoxy]cyclohexanecarboxylic acid]
8.2 nM | 12 nM | > 2000 µg/mL | > 2000 µg/mL | Cn1cc(C(=O)Nc2cc(Cl)c(CC(=O)N3C[C@@H](N4CCCOCC4)C[C@H]3CO[C@H]3CC[C@H](C(=O)O)CC3)cc2Cl)c2ccccc21 [Example 165, Trans-4-[1-[[2,5-dichloro-4-[(1-methyl-1H-indol-3-ylcarbonyl)amino]phenyl]acetyl]-(4S)-([1,4]-oxazepan-4-yl)-(2S)-pyrrolidinylmethoxy]cyclohexanecarboxylic acid]
